{"source": "patent US12569506B2", "about": "“Methods of treating osteonecrosis with LLP2A-bisphosphonate compounds” (The Regents of the University of California, priority 2016, dated 2026)", "type_in_all_cases": "in vivo, BALB/c mice", "key": {"[1]": {"test_system": "dexamethasone-treated mice", "experiment": "30 and 45 day prevention study: trabecular bone histology of distal femur epiphyses", "procedure": "(§1) The efficacy of LLP2A-Ale and hPTH (1-34) was evaluated over a 30 and 45 day study using a mouse model of glucocorticoid-induced osteonecrosis. Seven week-old male BALB/c mice were randomized into Placebo group (fresh water), glucocorticoid only (4 mg/L dexamethasone (Dex) in drinking water), Dex+250 μg/kg LLP2A-Ale, Dex+500 μg/kg LLP2A-Ale, or Dex+40 μg/kg hPTH (administered five times a week) for 30 or 45 days. At day 30 or 45, the mice were sacrificed. Study endpoints included histological evidence of osteonecrosis, bone mass, and prevalent blood vessels (CD31 and Endomucin expression) in the distal femur, and was performed as set forth in Example 2. Non-parametric Kruskal-Wallis tests were used to determine the differences between the groups."}, "[2]": {"test_system": "dexamethasone-treated mice", "experiment": "30 and 45 day prevention study: incidence of glucocorticoid-induced osteonecrosis", "conditions": "30 or 45 days; Dex + LLP2A-Ale 250 or 500 μg/kg, or Dex + 40 μg/kg hPTH five times a week (FIG. 12)", "procedure": "FIG. 12. Reduction in incidence of glucocorticoid-induced osteonecrosis in mice treated with recombinant LLP2A-Ale. Mice were randomized into placebo (PL) (fresh water), dexamethasone (Dex) 4 mg/l in drinking water, Dex+250 μg/kg LLP2A-Ale, Dex+500 μg/kg LLP2A-Ale, or Dex+40 μg/kg hPTH (1-34) groups for a 30 day treatment period or a 45 day treatment period. The incidence of Dex-induced osteonecrosis was 57% on day 30 and 73% on day 45.\nas §1"}, "[3]": {"test_system": "dexamethasone-treated mice", "experiment": "Empty lacunae density in distal femoral epiphysis, 90 day model", "conditions": "day 90", "procedure": "FIG. 8A-8B. Empty lacunae density of femurs from in dexamethasone-treated mice. Mice treated with placebo (PL), dexamethasone alone (Dex), Dex+250 μg/kg LLP2A-Ale, Dex+500 μg/kg LLP2A-Ale, or Dex+750 μg/kg LLP2A-Ale as described above for FIG. 7 were assessed for empty lacunae density within the distal femoral epiphysis region. Empty lacunae density was calculated by determining the number of empty lacunae in the entire distal femoral epiphysis region divided by the total number of osteocytes within the same region for each specimen. In the Dex only group, 75% of the samples had 10% or more empty lacunae, as compared to 44-62% of the samples in LLP2A-Ale-treated groups. A higher number of LLP2A-Ale 250 μg/kg, LLP2A-Ale 500 μg/kg, and LLP2A-Ale 750 μg/kg—treated samples had less than 10% empty lacunae as compared to Dex only treatment.\nBoth the right and left distal femurs were fixed in 10% neutral buffered formalin and were shaken for 3 days, then decalcified in 5% EDTA until the bones were fully decalcified. The specimens were then processed in ascending concentrations of ethanol and embedded in paraffin. Tissue sections were cut into 5 microns sections, stained with hematoxylin and eosin and evaluated for the presence of osteonecrosis by bright field microscopy at 20× magnification. […] Osteonecrosis was detected using modified criteria reported by Yang el al., (a mouse model for glucocorticoid-induced osteonecrosis: Effect of a steroid holiday. J Orthop Res. 2009; 27:169-75) which defines osteonecrosis as requiring all of the following changes: (1) empty lacunae, (2) pyknotic osteocyte nuclei in areas of empty lacunae and necrosis of adjacent bone marrow, (3) presence of excessive fat cells in the bone marrow, (4) cartilage degradation and (5) presence of fibrin thrombi in the blood vessels. In addition, trabecular bone volume, adipose volume, sinusoid volume and osteoblast surface at the distal femoral epiphyses were measured. Empty lacunae density was calculated by empty lacunae/total osteocytes within the entire distal femoral epiphysis region for each sample. […]"}}, "note": "Entries after “also recorded” stand apart in the source; their conditions may differ.", "data": [{"compound": "Cc1ccccc1NC(=O)Nc1ccc(CC(=O)N[C@@H](CCCCNC(=O)/C=C/c2cccnc2)C(=O)N[C@@H](CCCC(=O)O)C(=O)NC2(C(=O)NCCOCCOCCNC(=O)CCC(=O)NCCOCCOCCNC(=O)CCC(=O)N[C@@H](CCCCNC(=O)[C@H](N)CSC3CC(=O)N(CC4CCC(C(=O)NCCCC(O)(P(=O)(O)O)P(=O)(O)O)CC4)C3=O)C(N)=O)CCCCC2)cc1", "note": "(some centres unmarked) [LLP2A-Ale]", "values": [{"measurement": "Trabecular bone volume", "setting": "[1]; day 30 and 45, Dex vs placebo, treated vs Dex (p<0.05)", "value": "higher bone volume"}, {"measurement": "Trabecular separation", "setting": "[1]; vs Dex group, day 30 and 45 (p<0.05)", "value": "lower trabecular separation"}, {"measurement": "Prevalence/incidence of glucocorticoid-induced osteonecrosis lesions (in words)", "setting": "[2]", "value": "prevented incident GC-induced osteonecrosis lesions; also recorded: reduced the incidence and severity of osteonecrosis; also recorded: prevented glucocorticoid-induced osteonecrotic lesions"}, {"measurement": "Samples with less than 10% empty lacunae", "setting": "[3]; LLP2A-Ale 250, 500, 750 μg/kg vs Dex only", "value": "more samples; also recorded: higher number"}, {"measurement": "Samples with 10% or more empty lacunae", "setting": "[3]; distal femoral epiphysis, Dex only vs LLP2A-Ale 250, 500, 750 μg/kg groups (FIG. 8A-B)", "value": "44-62%"}]}]}
